# Article PMC11246588, “New 1,2,4-oxadiazole derivatives as potential multifunctional agents for the treatment of Alzheimer’s disease: design, synthesis, and biological evaluation” (BMC Chemistry, 2024)
# Counter-ions that a name gives are not always drawn. Like-named read-outs stand apart in the source and are kept apart here.
# What was measured:
# MAO-B = target: T1, MAO-B (Homo sapiens, UniProt P27338); assay: MAO-B inhibitory assay; assay type: biochemical
# T1 construct: purchased Sigma M7441
# T1 sequence (P27338 1-520): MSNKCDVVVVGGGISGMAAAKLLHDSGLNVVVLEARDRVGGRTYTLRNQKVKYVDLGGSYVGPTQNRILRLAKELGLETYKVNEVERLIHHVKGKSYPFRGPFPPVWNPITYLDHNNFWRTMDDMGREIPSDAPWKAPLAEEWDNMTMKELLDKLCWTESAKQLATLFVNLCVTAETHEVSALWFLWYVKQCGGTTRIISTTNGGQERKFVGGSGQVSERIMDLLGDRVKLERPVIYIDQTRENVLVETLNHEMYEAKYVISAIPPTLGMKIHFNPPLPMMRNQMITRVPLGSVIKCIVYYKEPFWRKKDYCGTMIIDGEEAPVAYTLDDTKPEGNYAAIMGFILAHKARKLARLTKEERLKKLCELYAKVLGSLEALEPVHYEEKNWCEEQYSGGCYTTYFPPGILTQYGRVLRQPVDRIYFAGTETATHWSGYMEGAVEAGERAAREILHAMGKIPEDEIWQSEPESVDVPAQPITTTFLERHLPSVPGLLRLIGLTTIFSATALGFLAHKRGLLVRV
# [1] = system: human red blood cells (HRBCs); assay: Anti-hemolytic effect (hypotonic solution-induced human erythrocyte hemolysis); assay type: cell-based; conditions: read-out: Hemolysis-IC50 (µM ± SD)
# Description: The inhibition of human red blood cells (HRBCs) membrane lysis under […] conditions was taken as a measure of the mechanism of anti-hemolytic activity of the synthesized 1,2,4-oxadiazole-based derivatives. […]
# The test carried out triplicate. […]
# It was calculated by interpolation from the graph of inhibition percentage against sample concentration using linear regression equations.
# The Inhibition percentage was calculated. IC50 value is the […]
# centrifugation each time for 10 min at 3000 ×g. […]
# solution-induced human erythrocyte hemolysis. […]
# consisted of 0.5 mL of RBCs mixed with hypotonic-buffered saline solution alone. The mixtures were incubated for 10 min at room temperature and centrifuged for 10 min at 3000 ×g and the absorbance of the supernatant was measured at 540 nm using optima spectrophotometer. The test carried out triplicate. Inhibition of hemolysis percentages were calculated. Inhibition of hemolysis activity was expressed as IC50.
# MAO-A = target: T2, MAO-A (Homo sapiens, UniProt P21397); assay: biochemical
# T2 sequence (P21397 1-527): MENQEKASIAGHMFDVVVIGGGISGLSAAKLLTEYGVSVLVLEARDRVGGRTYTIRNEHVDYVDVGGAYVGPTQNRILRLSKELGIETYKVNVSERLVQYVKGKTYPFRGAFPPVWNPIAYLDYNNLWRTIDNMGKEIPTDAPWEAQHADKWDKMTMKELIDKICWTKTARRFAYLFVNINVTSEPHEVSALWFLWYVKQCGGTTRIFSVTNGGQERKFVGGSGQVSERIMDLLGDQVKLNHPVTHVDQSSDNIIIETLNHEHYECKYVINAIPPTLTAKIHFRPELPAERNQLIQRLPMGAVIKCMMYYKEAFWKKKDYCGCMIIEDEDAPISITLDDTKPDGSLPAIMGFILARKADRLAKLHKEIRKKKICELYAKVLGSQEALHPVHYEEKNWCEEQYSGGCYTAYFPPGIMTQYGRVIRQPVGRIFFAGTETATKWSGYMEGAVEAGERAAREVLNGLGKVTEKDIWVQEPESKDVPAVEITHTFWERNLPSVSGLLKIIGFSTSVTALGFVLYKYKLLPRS
# Description: The MAO-B and MAO-A inhibitory potentials of all the synthesized 1,2,4-oxadiazole-based derivatives were evaluated. Biperiden and methylene blue (methylthioninium chloride) were used as the reference standards.
# In test tube, 150 µL of 20 nM of MAO-A or MAO-B (M7441, Sigma), 150 µL of tested compound serial dilutions (0, 0.1,
# 0.25, 0.5,1 and 2 mg/mL), 133 µL potassium phosphate buffer and 667 µL of or benzylamine (5µM) were mixed well.
# absorbance was measured at 250 nm against air after 30 s and 90 s. The Inhibition percentage was calculated.
# inhibitory concentration at which 50% of MAO -A or MAO-B is repressed.
# AChE [2] = target: T3, AChE (Homo sapiens, UniProt P22303); assay: AChE inhibitory assay (Ellman-type, brain homogenate supernatant); assay type: biochemical; conditions: for IC50 / AChE-IC50 (µM ± SD): means of three replicates, N.A. means no activity; for IC50: read-out: AChE-IC50 (µM ± SD); for AChE Selectivity Index: IC50 of BuChE/ IC50 of AChE
# T3 construct: from tissue; host or cells: brain homogenate supernatant
# Description: The results, which are shown in Table 1, are graphically represented in Figs. 2 and 3. […]
# 3.1. AChE and BuChE inhibitory assays
# In ELISA plate (Bio Tec. USA), 150 μL of phosphate buffer was directly added in ELISA blank well and 130 μL of phosphate buffer was added in ELISA activity wells. To the blank and activity wells, 5 μL of substrate ACTI was added, then 20 μL brain homogenate supernatant was added in activity ELISA wells only. The plate was preincubated for 15 min at 37 °C before the addition of the second substrate (DTNB). DTNB (60 μL) was added in both the blank and activity wells. Absorbance was […]
# Values obtained were analyzed and blank reading was subtracted from sample readings. The AChE and BuChE inhibition activity of tested compound was expressed as IC 50. IC50 value is the inhibitory concentration at which 50% of AChE or BuChE is repressed. […]
# sample concentration using linear regression equations.
# [3] = DPPH radical scavenging activity; conditions: means of three replicates; N.A. means no activity; read-out: DPPH-IC50 (µM ± SD)
# AChE [4] = target: T3, AChE; design: method as in PMID 18550375, PMID 33017743, PMID 36223681, PMID 34752955, PMID 26077890; conditions: Fig. 1; ref [50]–[55]; cited from earlier work
# [5] = design: method as in PMID 18550375, PMID 33017743, PMID 36223681, PMID 34752955, PMID 26077890; conditions: Fig. 1; ref [50]–[55]; read-out: Anti-neuroinflammatory potency (IC50); cited from earlier work
# GSK-3β = system: GSK-3β; design: method as in PMID 18550375, PMID 33017743, PMID 36223681, PMID 34752955, PMID 26077890; conditions: Fig. 1; ref [50]–[55]; cited from earlier work
# [6] = inhibition of induced HRBC membrane lysis, means of three replicates
# T3 sequence (P22303 32-614): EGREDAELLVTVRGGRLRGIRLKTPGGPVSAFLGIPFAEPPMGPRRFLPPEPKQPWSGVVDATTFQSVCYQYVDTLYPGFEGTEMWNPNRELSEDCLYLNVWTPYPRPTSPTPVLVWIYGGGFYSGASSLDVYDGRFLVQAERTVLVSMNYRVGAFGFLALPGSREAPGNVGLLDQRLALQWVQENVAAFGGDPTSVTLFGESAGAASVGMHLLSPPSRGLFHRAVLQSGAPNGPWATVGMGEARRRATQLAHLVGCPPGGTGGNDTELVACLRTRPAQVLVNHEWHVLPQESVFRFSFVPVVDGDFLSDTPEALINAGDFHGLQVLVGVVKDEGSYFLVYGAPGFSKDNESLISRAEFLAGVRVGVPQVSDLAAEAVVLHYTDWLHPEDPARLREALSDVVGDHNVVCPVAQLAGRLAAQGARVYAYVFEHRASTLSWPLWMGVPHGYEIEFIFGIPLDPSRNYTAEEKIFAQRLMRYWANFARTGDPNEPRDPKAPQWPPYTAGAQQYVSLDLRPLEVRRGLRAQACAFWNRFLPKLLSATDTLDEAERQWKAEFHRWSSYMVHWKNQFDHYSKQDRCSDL
smiles,measurement,setting,value
"O=C(COc1ccccc1-c1nc(Cc2ccccc2)no1)NN1C(=O)c2ccccc2C1=O [Compound 4b, 2-(2-(3-Benzyl-1,2,4-oxadiazol-5-yl)phenoxy)-N-(1,3-dioxoisoindolin-2-yl)acetamide]",IC50,MAO-B,713 ± 22.3 µM
same,IC50,[1]; [6],1790 ± 89.3 µM
same,IC50,MAO-A,130 ± 16.9 µM
same,IC50,AChE [2],0.0293 ± 0.0013 µM
same,IC50,[3],2661 ± 26.3 µM
"O=C(COc1ccccc1-c1nc(-c2ccccc2)no1)NNC(=O)c1ccc2ccccc2n1 [Compound 5a, N’-(2-(2-(3-Phenyl-1,2,4-oxadiazol-5-yl)phenoxy)acetyl)quinoline-2-carbohydrazide]",IC50,MAO-B,274 ± 21.1 µM
same,IC50,[1]; [6],2020 ± 111 µM
same,IC50,AChE [2],0.0475 ± 0.0028 µM
same,IC50,[3],885 ± 22.9 µM
"O=C(O)Cc1ccccc1Nc1c(Cl)cccc1Cl [Diclofenac, reference compound]",IC50,[1],1120 ± 12.6 µM
"O=C(COc1ccccc1-c1nc(-c2ccccc2)no1)N/N=C\c1ccccc1[N+](=O)[O-] [Compound 2a, (E/Z)-N’-(2-Nitrobenzylidene)-2-(2-(3-phenyl-1,2,4-oxadiazol-5-yl)phenoxy)acetohydrazide]",IC50,[1]; [6],1790 ± 63.1 µM
same,IC50,AChE [2],0.0339 ± 0.0029 µM
same,IC50,[3],1310 ± 31.5 µM
"O=C(COc1ccccc1-c1nc(-c2ccc(C(F)(F)F)cc2)no1)N/N=C\c1cnn(-c2ccccc2)n1 [Compound 3c, (E/Z)-N’-((2-Phenyl-2 H-1,2,3-triazol-4-yl)methylene)-2-(2-(3-(4-(trifluoromethyl)phenyl)-1,2,4-oxadiazol-5-yl)phenoxy)acetohydrazide]",IC50,[1]; [6],661 ± 23.8 µM
same,IC50,MAO-A,115 ± 19.5 µM
same,AChE-IC50 (µM ± SD),AChE [2],nonexistent efficacy
same,IC50,[3],582 ± 42.9 µM
"O=C(COc1ccccc1-c1nc(-c2ccc(C(F)(F)F)cc2)no1)N/N=C\c1ccccc1[N+](=O)[O-] [Compound 2c, (E/Z)-N’-(2-Nitrobenzylidene)-2-(2-(3-(4-(trifluoromethyl)phenyl)-1,2,4-oxadiazol-5-yl)phenoxy) acetohydrazide]",IC50,MAO-B,266 ± 13.4 µM
same,IC50,[1]; [6],4340 ± 126 µM
same,AChE Selectivity Index,AChE [2],"3,100"
same,IC50,AChE [2],0.0127 ± 0.00102 µM
same,IC50,[3],464 ± 31.5 µM
"O=C(COc1ccccc1-c1nc(-c2ccccc2)no1)NN1C(=O)c2ccccc2C1=O [Compound 4a, N-(1,3-Dioxoisoindolin-2-yl)-2-(2-(3-phenyl-1,2,4-oxadiazol-5-yl)phenoxy)acetamide]",IC50,MAO-B,394 ± 16.3 µM
same,IC50,[1]; [6],522 ± 15.9 µM
same,AChE Selectivity Index,AChE [2],"1,010"
same,IC50,AChE [2],0.0328 ± 0.0011 µM
same,IC50,[3],1660 ± 62.3 µM
NNC(=O)COc1ccccc1-c1nc(Cc2ccccc2)no1 [Compound 1b],IC50,MAO-B,535 ± 41.5 µM
same,IC50,[1]; [6],1190 ± 78.3 µM
same,IC50,MAO-A,82.5 ± 8.7 µM
same,IC50,AChE [2],0.031 ± 0.0024 µM
same,IC50,[3],1280 ± 42.8 µM
"O=C(COc1ccccc1-c1nc(-c2ccc(C(F)(F)F)cc2)no1)NNC(=O)c1ccc2ccccc2n1 [Compound 5c, N’-(2-(2-(3-(4-(Trifluoromethyl)phenyl)-1,2,4-oxadiazol-5-yl)phenoxy)acetyl)quinoline-2-carbohydrazide]",IC50,[1]; [6],521 ± 11.9 µM
same,AChE Selectivity Index,AChE [2],894
same,IC50,AChE [2],0.0792 ± 0.0061 µM
same,IC50,[3],1140 ± 68.9 µM
"O=C(COc1ccccc1-c1nc(Cc2ccccc2)no1)NNC(=O)c1ccc2ccccc2n1 [Compound 5b, N’-(2-(2-(3-Benzyl-1,2,4-oxadiazol-5-yl)phenoxy)acetyl)quinoline-2-carbohydrazide]",IC50,[1]; [6],3560 ± 125 µM
same,AChE Selectivity Index,AChE [2],627
same,IC50,AChE [2],0.0337 ± 0.00089 µM
NNC(=O)COc1ccccc1-c1nc(-c2ccc(C(F)(F)F)cc2)no1 [Compound 1c],IC50,MAO-B,397 ± 19.6 µM
same,IC50,[1]; [6],657 ± 33.1 µM
same,IC50,MAO-A,147 ± 16.9 µM
same,AChE-IC50 (µM ± SD),AChE [2],nonexistent efficacy
same,IC50,[3],735 ± 12.8 µM
"O=c1c(O)c(-c2ccc(O)c(O)c2)oc2cc(O)cc(O)c12 [Quercetin, reference compound]",IC50,[3],491 ± 14.8 µM
NNC(=O)COc1ccccc1-c1nc(-c2ccccc2)no1 [Compound 1a],IC50,MAO-B,359 ± 23.4 µM
same,IC50,[1]; [6],1620 ± 57.8 µM
same,IC50,MAO-A,47.2 ± 8.1 µM
same,AChE-IC50 (µM ± SD),AChE [2],nonexistent efficacy
same,IC50,[3],1220 ± 51.3 µM
"O=C(COc1ccccc1-c1nc(Cc2ccccc2)no1)N/N=C\c1cnn(-c2ccccc2)n1 [Compound 3b, (E/Z)-2-(2-(3-Benzyl-1,2,4-oxadiazol-5-yl)phenoxy)-N’-((2-phenyl-2 H-1,2,3-triazol-4-yl)methylene) acetohydrazide]",IC50,MAO-B,140 ± 8.7 µM
same,IC50,[1]; [6],457 ± 19.6 µM
same,AChE Selectivity Index,AChE [2],735
same,IC50,AChE [2],0.0233 ± 0.00069 µM
same,IC50,[3],537 ± 19.3 µM
"O=C(COc1ccccc1-c1nc(Cc2ccccc2)no1)N/N=C\c1ccccc1[N+](=O)[O-] [Compound 2b, (E/Z)-2-(2-(3-Benzyl-1,2,4-oxadiazol-5-yl)phenoxy)-N’-(2-nitrobenzylidene)acetohydrazide]",IC50,MAO-B,346 ± 14.3 µM
same,IC50,[1]; [6],4100 ± 114 µM
same,IC50,MAO-A,204 ± 17.9 µM
same,AChE Selectivity Index,AChE [2],"36,571"
same,IC50,AChE [2],0.00098 ± 1e-06 µM
same,IC50,[3],991 ± 11.4 µM
"O=C(COc1ccccc1-c1nc(-c2ccccc2)no1)N/N=C\c1cnn(-c2ccccc2)n1 [Compound 3a, (E/Z)-2-(2-(3-Phenyl-1,2,4-oxadiazol-5-yl)phenoxy)-N’-((2-phenyl-2 H-1,2,3-triazol-4-yl)methylene) acetohydrazide]",IC50,[1]; [6],622 ± 23.4 µM
same,IC50,MAO-A,85.2 ± 5.9 µM
same,AChE-IC50 (µM ± SD),AChE [2],nonexistent efficacy
"O=C(COc1ccccc1-c1nc(-c2ccc(C(F)(F)F)cc2)no1)NN1C(=O)c2ccccc2C1=O [Compound 4c, N-(1,3-Dioxoisoindolin-2-yl)-2-(2-(3-(4-(trifluoromethyl)phenyl)-1,2,4-oxadiazol-5-yl)phenoxy)acetamide]",IC50,MAO-B,117 ± 9.8 µM
same,IC50,[1]; [6],1040 ± 88.9 µM
same,IC50,MAO-A,144 ± 22.4 µM
same,AChE Selectivity Index,AChE [2],673
same,IC50,AChE [2],0.0377 ± 0.0027 µM
COc1ccc(-c2noc(Cn3cc(Cn4c5ccccc5c(=O)c5ccccc54)nn3)n2)cc1 [V],IC50,AChE [4],11.5 µM
"OC(CCN1CCCCC1)(c1ccccc1)C1CC2C=CC1C2 (centres unmarked) [Biperiden HCl, reference compound]",IC50,"MAO-B; means of three replicates, N.A. means no activity, read-out: MAO-B-IC50 (µM ± SD)",238 ± 16.3 µM
Cc1cc(-c2noc(-c3ccc(OCC4CCN(Cc5cccc(F)c5)CC4)cc3)n2)ccn1 [III],IC50,AChE [4],0.07 µM
CC(C)(C)c1ccc(S(=O)(=O)Nc2ccc(-c3nc(-c4ccnc(Nc5ccccc5Cl)c4)no3)cc2)cc1 [II],IC50,[5],6.94 µM
same,IC50,GSK-3β,0.19 µM
